{
  "source": "paper PMC7287882",
  "about": "“Dual miRNases for Triple Incision of miRNA Target: Design Concept and Catalytic Performance” (Molecules, 2020)",
  "key": {"miR-17": {"system": "miR-17", "test": "Gel-retardation assay, hybridization with miR-17", "type": "binding", "conditions": "50 mM Tris-HCl pH 7.0, 200 mM KCl, 1 mM EDTA, 37 °C, 45 min, mean of 3", "from_the_text": "We carried out a comparative analysis of the hybridization properties of the developed DCs with the corresponding SCs, which were the products of the first stage of the DCs synthesis. As discussed above, each SC consisted of the corresponding oligonucleotide A, which was complementary to the 5′-region of the matching miRNA target, and the catalytic peptide [LRLRG]2, attached to the 5′-end of this oligonucleotide via a thiohexyl linker (linker 2). […] Indeed, the level of binding of DCs to their miRNA targets reached 96, 90, 75, 55% at equimolar concentration (1 μM), and 99, 96, 92 and 69% at 5-fold excess of DCs over miR-17, miR-18a, miR-21 and miR-155, respectively (Figure 2). […]\nThe reaction mixture (4 µL) containing 50 mM Tris-HCl, pH 7.0, 200 mM KCl and 1 mM EDTA, 100 cpm (Cherenkov’s counting) of [^32P]-miRNA, 1 μM unlabeled miRNA, a conjugate at a concentration ranging from 0.1 to 10 μM was incubated at 37 °C for 45 min and quenched by adding of a loading buffer (20% ficoll, 0.025% bromophenol blue, 0.025% xylene cyanol). […] Formation of the complex miRNA/conjugate was analyzed by electrophoresis in 15% native PAAG at 4 °C. The gels were analyzed using Molecular Imager FX. The extent of binding of conjugate to miRNA was determined as a ratio of radioactivity measured in the complex to the total radioactivity applied onto the gel lane."}, "miR-21": {"system": "miR-21", "test": "Ribonuclease activity assay with DC or ON and RNase H, miR-21", "type": "biochemical", "experimental": "It is known that DNA-like antisense oligonucleotides after binding to target RNAs form a substrate for intracellular endonuclease RNases H. RNA hydrolysis in RNA-DNA heteroduplex by RNase H1 occurs at a distance of 6–10 nucleotides from the 5′-end of RNA (approximately one turn of the helix). Our design of the Dual conjugates here was carried out in such a way to ensure that their heteroduplexes with the matching miRNA sequences could serve as potential substrates for RNase H. To achieve that, we ensured that the length of the oligonucleotide recognition motifs A and B within the DC was 8–10 nt, which was expected to be sufficient for interaction and cleavage by RNase H (see Figure 1 and Table 1). As indicated above, a few adenine aromatic basis within each recognition motifs A and B were replaced with 2-aminoadenines to enhance the hybridization ability of the DC with miRNA. […] In order to verify this, as well as to evaluate the ability of RNase H to contribute to the miRNA cleavage catalyzed by DC, we studied the kinetics of the target miRNA cleavage performed (1) by the DC alone; (2) by RNase H, when the target miRNA was hybridized with the nonconjugated Dual oligonucleotide (ON); and (3) by both DC and RNase H present in the same reaction mixture. The study was performed against miR-17, miR-155 and miR-21 using a 20-fold excess of DCs or respective oligonucleotides over the matching miRNA (see Table 1 for sequences).\nFigure 6 Cleavage kinetics of 5′-[^32P]-labeled miRNAs by DCs and/or RNase H. (a,d,g). Radioautographs of 18% denaturing PAAG showing the profiles of cleavage of miR-17, miR-155 and miR-21, respectively. Duplexes formed by 5′-[^32P]-miRNA (1 µM) and DC or ON (20 µM) were incubated at 37 °C for 48–72 h. RNase H was taken in the concentration of 5 or 100 u/mL. Lanes Im and T1–imidazole ladder and partial RNA digestion with RNase T1, respectively; control–RNA was incubated in the absence of DC or ON and in the presence of RNase H (100 u/mL); (b,e,h) Time dependency of cleavage of miR-17, miR-155 and miR-21, respectively, by DCs and/or RNase H. Data are presented as mean ± s.e. *—indicates statistically significant difference with p < 0.05; (c,f,i). […]\nThe reaction mixture (10 µL) containing 20 mM Tris-HCl, pH 7.8, 40 mM KCl, 8 mM MgCl2, 1 mM DTT, 0.02 mg/mL BSA, 800 cpm (Cherenkov’s counting) of [^32P]-miRNA, 1 µM unlabeled miRNA, 20 µM either DC or Dual oligonucleotide was incubated at 37 °C for 20 min then RNase H (5 or 100 U/mL) was added and the mixture was further incubated for 48 h. Aliquots were taken at 0, 1, 6, 24 and 48 h then the reaction was quenched, RNA cleavage products were collected and analyzed as described above."}},
  "data": [
    {"substance": "CTACCTGC–linker 1–[GRLRL]2–linker 2–AAGCACTTTG [miRNA-17-DC, Dual oligonucleotide-peptide conjugate targeted to miR-17: catalytic peptide [LRLRG]2 between two 2-aminoadenine-containing oligodeoxyribonucleotides]", "values": [
      {"measurement": "level of binding of DC to miRNA target", "setting": "miR-17; 5-fold excess of DC over miRNA (1 µM)", "value": 99, "unit": "%"},
      {"measurement": "level of binding of DC to miRNA target", "setting": "miR-17; equimolar, DC 1 µM : miRNA 1 µM, 15% native PAAG", "value": 96, "unit": "%"}
    ]},
    {"substance": "TCAACATC–linker 1–[GRLRL]2–linker 2–GATAAGCTA [miRNA-21-DC, Dual oligonucleotide-peptide conjugate targeted to miR-21: catalytic peptide [LRLRG]2 between two 2-aminoadenine-containing oligodeoxyribonucleotides]", "values": [
      {"measurement": "increase in rate of cleavage by DC in the presence of RNase H", "setting": "miR-21; RNase H 5 u/mL, versus DC alone", "value": 4, "unit": "fold"},
      {"measurement": "total extent of cleavage by DC and RNase H", "setting": "miR-21; RNase H 5 u/mL, miRNA 1 µM, DC 20 µM, buffer (2), 37 °C", "value": 40, "unit": "%"},
      {"measurement": "increase in rate of cleavage compared with DC alone", "setting": "miR-21; RNase H 100 u/mL", "value": 20, "unit": "fold"},
      {"measurement": "cleavage by DC and RNase H", "setting": "miR-21; RNase H 100 u/mL, completed in the first hour of incubation", "value": 100, "unit": "%"}
    ]}
  ]
}
